Experimental data from patent US20120245224A1, “CANNABINOIDS FOR USE IN THE TREATMENT OF NEUROPATHIC PAIN” (GW Pharma Limited, priority 2006, published 2012).

What was measured:
[1] = system: mechanical allodynia after chronic constriction injury (CCI) to the sciatic nerve; assay: Repeated administration, mechanical allodynia (Dynamic Plantar Aesthesiometer) in CCI rats; type: in vivo, rat; settings: for difference between the pain relieving values before and after treatment, Mechanical Allodynia: day 14 minus day 7
Method: (§1) Painful neuropathy was induced in male Wistar rats weighing 200-220 g (Harlan, Italy). Animals were anaesthetized with sodium pentobarbital (60 mg kg^−1 i.p.) and submitted to a surgical procedure to induce neuropathic pain according to Bennet & Xie (1988).
(§2) This procedure was a chronic constriction injury (CCI) to the sciatic nerve, this was achieved by exposing the common sciatic nerve at the level of the mid thigh and, proximal to the sciatic nerves trifurcation, four ligatures were loosely tied around it with about 1 mm spacing so that the epineural circulation was preserved.
(§3) Sham animals (sciatic exposure without ligation) were used as controls.
(§4) The compounds tested were a cannabinoid-containing plant extract which contained a ratio of CBD:THC of approximately 24:1. From Table 1 this could also be described as a “CBD-containing plant extract”. The extract comprised CBD at a concentration of 10 mg/kg and THC at a concentration of 0.42 mg/kg. Pure cannabinoids CBD (at a concentration of 10 mg/kg) and THC (at a concentration of 0.42 mg/kg) were also used as test articles for comparison to the cannabinoid-containing plant extract.
(§5) The test compounds were dissolved in a 1:1:18 mixture of ethanol, cremophor and saline.
(§6) In the repeated administration study the rats received the test compounds or the vehicle orally once a day for seven days, starting from the seventh day after the surgical procedure.
(§7) The animals pain response was monitored (i) before surgery, (ii) on day 7 (before starting the treatment) and (iii) on day 14 (24 hours after the last administration of the test article).
(§8) Mechanical allodynia was assessed using the Dynamic Plantar Aesthesiometer (Ugo Basile, Varese, Italy). Particularly, animals were placed in a test cage with a wire mesh floor, and the tip of von Frey-type filament was applied to the middle of the plantar surface of the hind paw. The filament exerted an increasing force starting below the threshold of detection and increasing until the animal removed its paw. Withdrawal threshold was expressed as tolerance level in g.
(§9) Table 5 below details the data produced by the repeated administration of the vehicle to the sham animals or administration of vehicle or test article to animals with CCI. Test article or vehicle was administered 7 days after the chronic constriction injury was applied and was administered once a day for a further seven days.

[2] = system: thermal hyperalgesia after chronic constriction injury (CCI) to the sciatic nerve; assay: Repeated administration, thermal hyperalgesia (Hargreaves plantar test) in CCI rats; type: in vivo, rat; settings: for difference between the pain relieving values before and after treatment, Thermal Hyperalgesia: day 14 minus day 7
Method: as §1, §2, §3, §4, §5, §6, §7
(§10) Thermal hyperalgesia was tested according to the Hargreaves procedure (Hargreaves et al., 1988) using the plantar test (Ugo Basile, Varese, Italy).
(§11) Briefly, animals were placed in a clear plexiglass box and allowed to acclimatise. A constant intensity radiant heat source was aimed at the midplantar area of the hind paw. The time, in seconds, from initial heat source activation until paw withdrawal was recorded.
as §9, with “4” for “5”

[3] = system: mechanical allodynia after chronic constriction injury (CCI) to the sciatic nerve; assay: Acute administration, mechanical allodynia (Dynamic Plantar Aesthesiometer) in CCI rats; type: in vivo, rat; settings: for Withdrawal threshold: CCI rats 14 days after injury, THC 0.42 mg/kg, CBD 10 mg/kg; for mean pain relieving effect of the test article when compared to the vehicle as a percentage, Mechanical Allodynia: mean over the test period
Method: as §1, §2, §3, §4, §5
(§12) The acute administration of compounds was evaluated in rats treated with vehicle for one week and subsequently provided with the test article prior to the behavioural evaluations. The behavioural evaluations were performed at different times (between 30 min to 24 hours).
as §8
Table 3 below details the data produced by the acute administration of the vehicle to the sham animals or administration of vehicle or test article to animals with CCI, 14 days after the injury occurred.

[4] = system: thermal hyperalgesia after chronic constriction injury (CCI) to the sciatic nerve; assay: Acute administration, thermal hyperalgesia (Hargreaves plantar test) in CCI rats; type: in vivo, rat; settings: for Withdrawal latency: CCI rats 14 days after injury, THC 0.42 mg/kg, CBD 10 mg/kg; for mean pain relieving effect of the test article when compared to the vehicle as a percentage, Thermal Hyperalgesia: mean over the test period
Method: as §1, §2, §3, §4, §5, §12, §10, §11
Table 2 below details the data produced by the acute administration of the vehicle to the sham animals or administration of vehicle or test article to animals with CCI, 14 days after the injury occurred.

[5] = system: neuropathic pain model of chronic constriction injury of the rat sciatic nerve; settings: purified compound; thermal and mechanical hyperalgesia and mechanical allodynia; cited from earlier work
[6] = system: patients taking carbamezepine; settings: cited from earlier work
[7] = day 0 (prior to CCI), baseline of the treatment group
[8] = day 7 after CCI (before drug treatment), baseline of the treatment group
[9] = day 14 after CCI (after 7 days of drug treatment, orally once a day; THC 0.42 mg/kg, CBD 10 mg/kg)
[10] = repeated administration, 7 days

SMILES | Withdrawal threshold [1, 7] | Withdrawal threshold [1, 8] | Withdrawal threshold [1, 9] | difference between the pain relieving values before and after treatment, Mechanical Allodynia ([1]; repeated administration) | Withdrawal latency [2, 7] | Withdrawal latency [2, 8] | Withdrawal latency [2, 9] | difference between the pain relieving values before and after treatment, Thermal Hyperalgesia ([2]; repeated administration) | Withdrawal threshold ([3]; 30 min after administration) | Withdrawal threshold ([3]; 60 min after administration) | Withdrawal threshold ([3]; 90 min after administration) | Withdrawal threshold ([3]; 120 min after administration) | Withdrawal threshold ([3]; 150 min after administration) | Withdrawal threshold ([3]; 180 min after administration) | mean pain relieving effect of the test article when compared to the vehicle as a percentage, Mechanical Allodynia [3] | pain relieving effect (in words), thermal hyperalgesia [4] | Withdrawal latency ([4]; 30 min after administration) | Withdrawal latency ([4]; 60 min after administration) | Withdrawal latency ([4]; 90 min after administration) | Withdrawal latency ([4]; 120 min after administration) | other results
C=C(C)[C@@H]1CCC(C)=C[C@H]1c1c(O)cc(CCCCC)cc1O [CBD, cannabidiol] | 34 g | 15 g | 19 g | 4 g | 10.4 s | 5.5 s | 8.7 s | 3.2 s | 10 g | 10 g | 11 g | 10 g | 10 g | 10 g | −13% | did not produce any pain relieving effects | 5.4 s | 5.4 s | 5.4 s | 5.3 s | pain relieving effect (in words), mechanical allodynia [3]: did not produce any pain relieving effects; Withdrawal latency ([4]; 150 min after administration): 5.4 s; Withdrawal latency ([4]; 180 min after administration): 5.3 s; mean pain relieving effect of the test article when compared to the vehicle as a percentage, Thermal Hyperalgesia [4]: −4%; relief of neuropathic pain (in words) [5]: can partially relieve neuropathic pain
CCCCCc1cc(O)c2c(c1)OC(C)(C)[C@@H]1CCC(C)=C[C@@H]21 [THC, delta-9-tetrahydrocannabinol] | 31 g | 12 g | 10 g | -2 g | 9.8 s | 5.8 s | 4.8 s | -1.0 s | 12 g | 9 g | 15 g | 21 g | 13 g | 10 g | 14% | increased the withdrawal latency over that of the vehicle treated animals | 11.0 s | 10.2 s | 9.8 s | 6.0 s | pain relieving effect (in words), mechanical allodynia [1, 10]: did not result in any pain relieving effect; pain relieving effect (in words), thermal hyperalgesia [2, 10]: did not result in any pain relieving effect; peak withdrawal threshold ([3]; peak after 120 minutes): 20 g; Withdrawal latency ([4]; 150 min after administration): 5.0 s; Withdrawal latency ([4]; 180 min after administration): 5.3 s; mean pain relieving effect of the test article when compared to the vehicle as a percentage, Thermal Hyperalgesia [4]: 47%
NC(=O)N1c2ccccc2C=Cc2ccccc21 [carbamezepine] |  |  |  |  |  |  |  |  |  |  |  |  |  |  |  |  |  |  |  |  | increase in the risk of blood dyscrasias ([6]; post-marketing studies, patients taking carbamezepine): five- to eight-fold increase; patients with a 25% decrease in their white blood cell count ([6]; usually reverses within the first 4 months of therapy): 7%
